Results reported in paper PMC7118210 (Frontiers in Pharmacology, 2020).
Blank lines part the entries; values can stand above or below the compound they belong to.

Key:
[1] = Multiple-dose pharmacokinetics in dogs; format: in vivo, Beagle dogs
Description: The optimal volume and activity in unit volume of enzyme solution [0.2 M acetic acid/water solution: 0.2 M ammonium acetate/water solution, 15:35 (v/v)] were determined through a pretest of the enzyme (rat plasma, 10 μl, 10 U μl^-1; dog plasma, 10 μl, 10 U μl^-1; human plasma, 20 μl, 20 U μl^-1; human urine, 10 μl, 10 U μl^-1). After enzyme incubation, 10 μl of IS solution was added to the plasma and urine samples (2 μg ml^-1 quercetin 3-β-D-glucoside for rat and dog plasma; 583 ng ml^-1 naringin-D4 and 160 ng ml^-1 naringenin-D4 for human plasma; and 9,710 ng ml^-1 naringin-D4 and 6,000 ng ml^-1 naringenin-D4 for human urine). To each fecal sample, 9-fold methanol-normal saline (2:1, v/v) was added, mixed (18,000 rpm, 15 min) by vortexing and centrifuged (10 min, 9,000 rpm, 4°C). Next, 10 μl IS solution (971 ng ml^-1 naringin-D4 and 600 ng ml^-1 naringenin-D4) was added to the supernatants of feces (200 μl) without enzyme incubation. […] The solid material was dissolved with acetonitrile-water (1:1, v/v) and injected into the ultra high-performance liquid chromatography coupled with triple quadrupole mass spectrometry (UHPLC/MS/MS) system as described below. The analysis of nonclinical and clinical samples was performed with a UHPLC/MS/MS system that consisted of a Shimadzu Nexera X2 ultra high-performance liquid chromatography (UHPLC) (Shimadzu Corp., Kyoto, Japan) coupled with an AB Sciex API4000 triple-quadrupole mass spectrometry (MS/MS) system (AB Sciex, Foster City, CA, USA) equipped with an electrospray ionization source and controlled by Analyst (v. 1.6.2) software. […] The injection volume was 10 μl with the flow rate of 0.3 ml min^-1 for plasma, and 0.4 ml min^-1 for urine and feces. The compounds were detected by multiple reaction monitoring in the negative ion electrospray mode. The electrospray source conditions were as follows: ion source gas1 30 psi, ion source gas2 60 psi, curtain gas 20 psi, collisionally activated dissociation (CAD) gas 8 psi, temperature 500°C, and ion spray voltage −4,500 V. Zero air was used for ion source gas1 and ion source gas2 and nitrogen for curtain gas and CAD gas. […] All pharmacokinetic and excretion parameters were expressed as mean ± standard deviation (SD). All mean and SD values were reported to three significant figures. The pharmacokinetic parameters were calculated using the Phoenix WinNonlin software (Version 6.4, Pharsight Corp., Cary, NC, USA) and compared using the Student's t-test (p < 0.05) in SPSS 18.0 (SPSS Inc., Chicago, IL, USA). […] For the multiple-dose studies, pharmacokinetic parameters included the mean plasma level at steady state, Tmax, t1/2, the percent fluctuation, and the accumulation index (Table 3). […] In addition, we compared the pharmacokinetic parameters obtained from males and females (Tables 4–6).

[2] = Excretion in human urine and feces (mass balance); format: in vivo; conditions: for time within which excreted: humans
Description: All blood samples were transferred into heparin-treated centrifuge tubes and centrifuged for 10 min at 4,000 rpm and 4°C. All human urine samples were mixed and transferred (4 ml) into storage tubes. All biological samples were stored at −80°C.
The optimal volume and activity in unit volume of enzyme solution [0.2 M acetic acid/water solution: 0.2 M ammonium acetate/water solution, 15:35 (v/v)] were determined through a pretest of the enzyme (rat plasma, 10 μl, 10 U μl^-1; dog plasma, 10 μl, 10 U μl^-1; human plasma, 20 μl, 20 U μl^-1; human urine, 10 μl, 10 U μl^-1). […] To each fecal sample, 9-fold methanol-normal saline (2:1, v/v) was added, mixed (18,000 rpm, 15 min) by vortexing and centrifuged (10 min, 9,000 rpm, 4°C). […] Then, all plasma, urine, and fecal samples were extracted with ethyl acetate (rat plasma, 800 μl; dog plasma, 1,000 μl; human plasma, 3,000 μl; human urine, 3,000 μl; human feces, 3,000 μl) for at least 3 min by vortexing, centrifuged for 10 min at 3,900 rpm and 4°C; supernatants were transferred into centrifuge tubes and dried with N2. The solid material was dissolved with acetonitrile-water (1:1, v/v) and injected into the ultra high-performance liquid chromatography coupled with triple quadrupole mass spectrometry (UHPLC/MS/MS) system as described below.
The analysis of nonclinical and clinical samples was performed with a UHPLC/MS/MS system that consisted of a Shimadzu Nexera X2 ultra high-performance liquid chromatography (UHPLC) (Shimadzu Corp., Kyoto, Japan) coupled with an AB Sciex API4000 triple-quadrupole mass spectrometry (MS/MS) system (AB Sciex, Foster City, CA, USA) equipped with an electrospray ionization source and controlled by Analyst (v. 1.6.2) software. […] The mobile phase consisted of 0.1% formic acid (v/v) in water (A) and 0.1% formic acid in acetonitrile (B) using a linear gradient of 90% A (0–0.5 min), 90 to 60% A (0.5–1.5 min), 60% to 40% A (1.5–3.5 min), 40% to 10% A (3.5–4.5 min), 10% A (4.5–5.5 min), 10% to 90% A (5.5–6.0 min), and 90% A (6.0–7.5 min) for plasma; and 80% A (0–0.2 min), 80 to 64% A (0.2–2.0 min), 64% to 63% A (2.0–4.4 min), 63% to 0% A (4.4–4.5 min), 0% A (4.5–5.5 min), 0% to 90% A (5.5–5.6 min), 90% A (5.6–5.9 min), 90% to 35% A (5.9–6.0 min), 35% A (6.0–6.2 min), 35 to 80% A (6.2–6.3 min), and 80% A (6.3–7.5 min) for urine and feces. The injection volume was 10 μl with the flow rate of 0.3 ml min^-1 for plasma, and 0.4 ml min^-1 for urine and feces. The compounds were detected by multiple reaction monitoring in the negative ion electrospray mode. The electrospray source conditions were as follows: ion source gas1 30 psi, ion source gas2 60 psi, curtain gas 20 psi, collisionally activated dissociation (CAD) gas 8 psi, temperature 500°C, and ion spray voltage −4,500 V. Zero air was used for ion source gas1 and ion source gas2 and nitrogen for curtain gas and CAD gas.
Next, 9-fold normal saline, instead of ninefold methanol-normal saline (2:1, v/v), was added to maintain enzyme activity in the feces. […] These samples were maintained at 37°C for 12 h.

[3] = naringin 12.4 mg kg^-1 multiple dose, dog, female
[4] = naringin 12.4 mg kg^-1 multiple dose, dog, male
[5] = naringin 12.4 mg kg^-1 p.o. three times a day, multiple dose, dog
[6] = naringin 160 mg, three times a day, p.o., human
[7] = naringin 160 mg (high-fat diet) p.o., human

accumulation in multiple-dose study ([1]; dog, in vivo): no significant accumulation
CavSS [1, 3]: 50.7 ± 16.1 ng/mL
CavSS [1, 4]: 49 ± 10.4 ng/mL
CavSS [1, 5]: 49.8 ± 12.2 ng/mL
time within which excreted [2]: ≤ 48 h
cumulative excretion in feces, Naringenin [2, 6]: 1.83 ± 2.32 % of dose
cumulative excretion in urine, Naringenin [2, 6]: 28.3 ± 43.2 % of dose
Structure (SMILES): O=C1C[C@@H](c2ccc(O)cc2)Oc2cc(O)cc(O)c21 [naringenin, Naringenin]

Structure (SMILES): C[C@@H]1O[C@@H](O[C@H]2[C@H](Oc3cc(O)c4c(c3)O[C@H](c3ccc(O)cc3)CC4=O)O[C@H](CO)[C@@H](O)[C@@H]2O)[C@H](O)[C@H](O)[C@H]1O [naringin, Naringin]
accumulation in multiple-dose study ([1]; dogs): no significant accumulation
CavSS [1, 3]: 22.1 ± 3.41 ng/mL
Fluctuation [1, 3]: 370 ± 119%
CavSS [1, 4]: 15.1 ± 2.53 ng/mL
Fluctuation [1, 4]: 242 ± 8.10%
CavSS [1, 5]: 18.6 ± 4.68 ng/mL
Fluctuation ([1]; naringin 12.4 mg kg^-1 p.o. three times a day, multiple dose, dog, (CmaxSS−CminSS)/CavSS×100%): 306 ± 103%
time within which excreted [2]: ≤ 48 h
cumulative excretion in feces, Naringin ([2]; naringin 40 mg p.o., human): 0.122 ± 0.202 % of dose
cumulative excretion in urine, Naringin ([2]; naringin 40 mg p.o., human): 0.067 ± 0.039 % of dose
cumulative excretion in feces, Naringin ([2]; naringin 80 mg p.o., human): 0.023 ± 0.036 % of dose
cumulative excretion in urine, Naringin ([2]; naringin 80 mg p.o., human): 0.037 ± 0.013 % of dose
cumulative excretion in feces, Naringin [2, 7]: 9.85 ± 20.0 % of dose
cumulative excretion in urine, Naringin [2, 7]: 0.025 ± 0.008 % of dose
cumulative excretion in feces, Naringin ([2]; naringin 160 mg p.o., human): 0.016 ± 0.023 % of dose
cumulative excretion in urine, Naringin ([2]; naringin 160 mg p.o., human): 0.027 ± 0.014 % of dose
cumulative excretion in feces, Naringin [2, 6]: 0.563 ± 1.00 % of dose
cumulative excretion in urine, Naringin [2, 6]: 0.034 ± 0.014 % of dose
cumulative excretion in feces, Naringin ([2]; naringin 320 mg p.o., human): 0.126 ± 0.325 % of dose
cumulative excretion in urine, Naringin ([2]; naringin 320 mg p.o., human): 0.033 ± 0.026 % of dose
cumulative excretion in feces, Naringin ([2]; naringin 480 mg p.o., human): 0.023 ± 0.033 % of dose
cumulative excretion in urine, Naringin ([2]; naringin 480 mg p.o., human): 0.012 ± 0.004 % of dose
